Publication PMC8558502 (The Biochemical journal, 2020)

Legend:
[1] = tested on: R. delemar tyrosinase enzyme activity; assay type: cell-based, Rhizopus delemar; conditions: 10 μg/ml, 3 days, protein extract with 10 mM L-DOPA
[2] = tested on: Rhizopus delemar melanin production; conditions: cited from earlier work
Rhizopus delemar = test: Growth; assay type: cell-based; conditions: kojic acid 50 μg/ml, 3 days

Structure (SMILES)	Inhibitory effect on melanin biosynthesis (tyrosinase activity) of R. delemar [1]	Reduction of melanin production from R. delemar [2]	Effect on growth of fungal hyphae (Rhizopus delemar)
CC(C)c1ccc(C=O)cc1 [Cuminaldehyde, cuminaldehyde]	highest	causes reduction of melanin production	–
O=c1cc(CO)occ1O [Kojic acid]	highest	–	significant reduction in the growth of fungal hyphae
